From patent US8642807B2, “Crystallized diacetylenic indicator compounds and methods of preparing the compounds” (Temptime Corporation, priority 2007, dated 2014)

Columns and labels:
Assay type in all cases: physicochemical
[1] = Solubility in 1,1,3,3-tetramethyl urea at 90° C. in a closed vial; details: tetramethyl urea (TMU)
Experimental: 1,1,3,3tetramethyl urea, also called “tetramethyl urea” and sometimes referenced “TMU” can dissolve up to 7% weight 2,4-hexadiyn-1,6-bis(ethylurea) at a temperature of 90° C. in a closed vial.

[2] = Further solubility tests at 1, 4, 7 and 10 percent by weight, 90° C. water bath (Example 2)
Experimental: A 90° C. water bath is employed to maintain the solvent or solution temperature and results obtainable are tabulated in Table 2 below, solubility parameter information again being included to facilitate understanding of the data for acetone and water, for reference.

[3] = Room temperature solubilities in various solvent systems (Table 3); details: for Solubility: 20° C., material recrystallized from acetic acid
Description: As is the case elsewhere herein, the acetone/water and ethanol/water solvent mixtures are given in weight-for-weight proportions in Table 3 and FIG. 10. It can be seen from Table 3 and FIG. 10 that some of the solvent systems displaying elevated solubility at higher temperatures, for example acetic acid and the several aqueous mixtures, have only limited solubility at room temperature.

[4] = Solubility test: ability of each solvent to dissolve at least 1 percent by weight at a process temperature near its boiling point (Example 1)
Description: This example illustrates solvent mapping, testing and solubility region definition for a diacetylenic monomer for which new solvents and solubility information are desired, namely 2,4-hexadiyn-1,6-bis(ethylurea) and for which reliable solubility parameter information is not available. In this example, solubility points are mapped for each of a number of representative samples of a wide range of solvents of different chemical types and physicochemical characteristics, according to their solubility parameters. The solubility points of the representative solvents (filled squares) are mapped on a plot of hydrogen bonding (δH), on the Y-axis, versus polar parameters (δP), on the X-axis, generating a map such as that shown in FIG. 4. Also shown in FIG. 4 are solubility points for solvent systems comprising 25 percent by weight water/solvent mixtures (unfilled squares).
Each solvent is tested for its ability to dissolve at least 1 percent by weight 2,4-hexadiyn-1,6-bis(ethylurea) at a temperature not more than 5° C. above the boiling point of the solvent. Because the boiling points of the solvents tested vary widely, ranging from 56° C. to 189° C. the solvents are processed in batches at temperatures of 60, 75, 82, and 90° C., respectively. The process temperature desirably is not greater than 4 to 5° C. above a given solvent's boiling point.
Some exemplary solubility data obtainable for 2,4-hexadiyn-1,6-bis(ethylurea) from the above-described solubility test with the solvents indicated, are set forth in Table 1 below along with solubility parameter information for the solvents. Also included in Table 1 are data regarding the 25 percent by weight water/solvent mixtures.

[5] = solvent 1-Propanol, 90° C. water bath
[6] = solvent 2-Propanol (IPA), 90° C. water bath
[7] = solvent 25% Water/Acetone, 90° C. water bath
[8] = solvent 25% Water/DMF, 90° C. water bath
[9] = solvent 25% Water/DMSO, 90° C. water bath
[10] = solvent 25% Water/Ethanol, 90° C. water bath
[11] = solvent 25% Water/IPA, 90° C. water bath
[12] = solvent 25% water/acetic acid, 90° C. water bath
[13] = solvent 25% water/formic acid, 90° C. water bath
[14] = solvent Acetic acid, 90° C. water bath
[15] = solvent Acetone, 90° C. water bath
[16] = solvent DMSO, 90° C. water bath
[17] = solvent Ethanol, 90° C. water bath
[18] = solvent Ethylene Glycol, 90° C. water bath
[19] = solvent Formic acid, 90° C. water bath
[20] = solvent Methanol, 90° C. water bath
[21] = solvent Pyridine, 90° C. water bath
[22] = solvent Water, 90° C. water bath

CCNC(=O)NCC#CC#CCNC(=O)NCC [KE, 2,4-hexadiyn-1,6-bis(ethylurea)]
0.16 wt. % of the Solution: Solubility ([3]; Acetone/water 4:1 (weight for weight))
0.17 wt. % of the Solution: Solubility ([3]; Ethyl alcohol)
0.90 wt. % of the Solution: Solubility ([3]; Tetramethyl urea)
~13 % by weight: amount solvated by formic acid ([3]; formic acid, room temperature)
30 wt. % of the Solution: Solubility ([3]; Trifluoroaceticacetic acid)
No: Is KE soluble at 4%? [2, 5] | Is KE soluble at 7%? [2, 5] | Is KE soluble at 10%? [2, 5] | Is KE soluble at 4%? [2, 6] | Is KE soluble at 7%? [2, 6] | Is KE soluble at 10%? [2, 6] | Is KE soluble at 7%? [2, 7] | Is KE soluble at 10%? [2, 7] | Is KE soluble at 10%? [2, 8] | Is KE soluble at 7%? [2, 9] | Is KE soluble at 10%? [2, 9] | Is KE soluble at 7%? [2, 10] | Is KE soluble at 10%? [2, 10] | Is KE soluble at 4%? [2, 11] | Is KE soluble at 7%? [2, 11] | Is KE soluble at 10%? [2, 11] | Is KE soluble at 10%? [2, 12] | Is KE soluble at 10%? [2, 13] | Is KE soluble at 1%? [2, 15] | Is KE soluble at 4%? [2, 15] | Is KE soluble at 7%? [2, 15] | Is KE soluble at 10%? [2, 15] | Is KE soluble at 4%? [2, 17] | Is KE soluble at 7%? [2, 17] | Is KE soluble at 10%? [2, 17] | Is KE soluble at 4%? [2, 18] | Is KE soluble at 7%? [2, 18] | Is KE soluble at 10%? [2, 18] | Is KE soluble at 7%? [2, 20] | Is KE soluble at 10%? [2, 20] | Is KE soluble at 4%? [2, 21] | Is KE soluble at 7%? [2, 21] | Is KE soluble at 10%? [2, 21] | Is KE soluble at 1%? [2, 22] | Is KE soluble at 4%? [2, 22] | Is KE soluble at 7%? [2, 22] | Is KE soluble at 10%? [2, 22] | KE soluble at 1% wt? ([4]; solvent Acrylonitrile, process T 75 °C) | KE soluble at 1% wt? ([4]; solvent Benzene, process T 75 °C) | KE soluble at 1% wt? ([4]; solvent Ethyl acetate, process T 75 °C) | KE soluble at 1% wt? ([4]; solvent THF, process T 60 °C) | KE soluble at 1% wt? ([4]; solvent n-Hexane, process T 75 °C)
0.18 wt. % of the Solution: Solubility ([3]; Ethanol/water 4:1 (weight for weight))
at least 4 percent by weight: Solubility ([2]; 25% water/ethanol mixture (1 part water, 3 parts ethanol by weight)) | Solubility ([2]; water and acetone combined (25% Water/Acetone))
33 wt. % of the Solution: Solubility ([3]; Dichloroacetic acid)
at least 1 percent by weight: amount dissolved ([4]; N,N-dimethyl formamide (DMF)) | amount dissolved ([4]; acetic acid) | amount dissolved ([4]; dimethyl sulfoxide (DMSO)) | amount dissolved ([4]; ethanol (EtOH)) | amount dissolved ([4]; ethylene glycol) | amount dissolved ([4]; the water/solvent mixtures (25 percent by weight water), all)
up to 7 % weight: amount dissolved by 1,1,3,3-tetramethyl urea [1]
23 wt. % of the Solution: Solubility ([3]; Formic acid)
> 10%: Solubility ([2]; dimethyl sulfoxide, 90° C. water bath) | Solubility ([2]; formic acid, 90° C. water bath)
about 1 % by weight: amount solvated by pyridine ([4]; pyridine)
0.6 wt. % of the Solution: Solubility ([3]; Acetic acid)
0.09 wt. % of the Solution: Solubility ([3]; Isopropyl alcohol)
less than 4 percent by weight: Solubility ([2]; pure ethanol)
0.27 wt. % of the Solution: Solubility ([3]; Methyl alcohol “MeOH”)
4 wt. % of the Solution: Solubility ([3]; DMF) | Solubility ([3]; DMSO)
insoluble: solubility in water ([2]; water)
Yes: Is KE soluble at 1%? [2, 5] | Is KE soluble at 1%? [2, 6] | Is KE soluble at 1%? [2, 7] | Is KE soluble at 4%? [2, 7] | Is KE soluble at 1%? [2, 8] | Is KE soluble at 4%? [2, 8] | Is KE soluble at 7%? [2, 8] | Is KE soluble at 1%? [2, 9] | Is KE soluble at 4%? [2, 9] | Is KE soluble at 1%? [2, 10] | Is KE soluble at 4%? [2, 10] | Is KE soluble at 1%? [2, 11] | Is KE soluble at 1%? [2, 12] | Is KE soluble at 4%? [2, 12] | Is KE soluble at 7%? [2, 12] | Is KE soluble at 1%? [2, 13] | Is KE soluble at 4%? [2, 13] | Is KE soluble at 7%? [2, 13] | Is KE soluble at 1%? [2, 14] | Is KE soluble at 4%? [2, 14] | Is KE soluble at 7%? [2, 14] | Is KE soluble at 10%? [2, 14] | Is KE soluble at 1%? ([2]; solvent DMF, 90° C. water bath) | Is KE soluble at 4%? ([2]; solvent DMF, 90° C. water bath) | Is KE soluble at 7%? ([2]; solvent DMF, 90° C. water bath) | Is KE soluble at 10%? ([2]; solvent DMF, 90° C. water bath) | Is KE soluble at 1%? [2, 16] | Is KE soluble at 4%? [2, 16] | Is KE soluble at 7%? [2, 16] | Is KE soluble at 10%? [2, 16] | Is KE soluble at 1%? [2, 17] | Is KE soluble at 1%? [2, 18] | Is KE soluble at 1%? [2, 19] | Is KE soluble at 4%? [2, 19] | Is KE soluble at 7%? [2, 19] | Is KE soluble at 10%? [2, 19] | Is KE soluble at 1%? [2, 20] | Is KE soluble at 4%? [2, 20] | Is KE soluble at 1%? [2, 21] | KE soluble at 1% wt? ([4]; solvent Ethanol, process T 75 °C)
